A word on the EC50: it is the concentration needed to bring the measured effect to its halfway point. Low values mean greater potency, high ones weaker potency.

Common to all, as to format: cell-based
In one experiment the target is T1, Y1R (Homo sapiens, UniProt P25929).
T1 sequence (P25929 1-384): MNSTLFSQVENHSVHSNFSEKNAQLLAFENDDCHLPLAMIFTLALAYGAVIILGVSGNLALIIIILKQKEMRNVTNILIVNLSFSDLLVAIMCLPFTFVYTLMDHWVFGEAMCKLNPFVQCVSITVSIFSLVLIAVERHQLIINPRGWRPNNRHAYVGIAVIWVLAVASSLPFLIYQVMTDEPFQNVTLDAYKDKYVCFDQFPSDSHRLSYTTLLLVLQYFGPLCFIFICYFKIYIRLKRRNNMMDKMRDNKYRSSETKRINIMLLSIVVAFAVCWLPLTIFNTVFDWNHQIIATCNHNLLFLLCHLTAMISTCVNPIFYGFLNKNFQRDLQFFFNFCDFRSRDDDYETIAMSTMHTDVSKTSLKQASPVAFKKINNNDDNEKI
Kind of experiment: CaFlux Assay (FLIPR), Y1R.

In another experiment the target is Y4R (Homo sapiens, UniProt P50391). The experiment can be described thus: CaFlux Assay (FLIPR), Y4R.
Sequence of Y4R (P50391 whole entry): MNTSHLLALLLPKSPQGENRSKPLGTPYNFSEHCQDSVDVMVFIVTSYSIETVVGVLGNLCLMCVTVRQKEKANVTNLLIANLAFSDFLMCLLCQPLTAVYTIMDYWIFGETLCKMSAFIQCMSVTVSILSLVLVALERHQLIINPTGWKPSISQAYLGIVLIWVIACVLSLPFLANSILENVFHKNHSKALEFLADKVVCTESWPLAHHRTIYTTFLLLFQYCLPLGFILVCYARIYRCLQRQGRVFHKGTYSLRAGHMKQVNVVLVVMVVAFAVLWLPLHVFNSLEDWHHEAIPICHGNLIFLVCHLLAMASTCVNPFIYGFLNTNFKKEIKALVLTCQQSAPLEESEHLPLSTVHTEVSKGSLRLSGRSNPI
The target of another experiment is T2, Y5R (Homo sapiens, UniProt Q15761).
T2 sequence (Q15761 1-445): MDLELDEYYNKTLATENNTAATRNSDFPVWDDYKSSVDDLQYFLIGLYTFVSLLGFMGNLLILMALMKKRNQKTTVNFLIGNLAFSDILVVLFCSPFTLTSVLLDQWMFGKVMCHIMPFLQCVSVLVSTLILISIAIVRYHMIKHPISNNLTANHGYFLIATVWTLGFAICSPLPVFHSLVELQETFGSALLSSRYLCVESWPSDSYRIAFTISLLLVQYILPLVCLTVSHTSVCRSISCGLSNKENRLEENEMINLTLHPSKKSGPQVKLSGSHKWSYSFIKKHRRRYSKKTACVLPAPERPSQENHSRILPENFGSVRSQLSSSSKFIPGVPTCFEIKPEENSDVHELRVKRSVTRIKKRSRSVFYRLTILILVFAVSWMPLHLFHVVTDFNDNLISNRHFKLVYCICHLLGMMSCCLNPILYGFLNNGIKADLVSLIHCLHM
Kind of experiment: CaFlux Assay (FLIPR), Y5R.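 On Emax: percent of the maximal response of the positive control agonist.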 Particulars: for Emax: read-out: Y5R FLIPR, percentage in parentheses under the EC50.

Experiment [1] concerns the target T3, hNPY2R (Homo sapiens, UniProt P49146).
T3 sequence (P49146 1-381): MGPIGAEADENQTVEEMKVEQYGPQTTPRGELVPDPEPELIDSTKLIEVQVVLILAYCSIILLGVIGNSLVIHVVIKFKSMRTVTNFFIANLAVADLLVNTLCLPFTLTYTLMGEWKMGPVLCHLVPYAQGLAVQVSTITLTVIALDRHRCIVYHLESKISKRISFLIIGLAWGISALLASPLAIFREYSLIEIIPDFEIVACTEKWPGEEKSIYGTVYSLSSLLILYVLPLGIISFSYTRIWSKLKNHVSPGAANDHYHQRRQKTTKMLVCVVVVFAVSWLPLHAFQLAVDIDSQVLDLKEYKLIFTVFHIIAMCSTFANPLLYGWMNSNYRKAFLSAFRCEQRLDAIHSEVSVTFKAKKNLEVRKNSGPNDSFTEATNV
The experiment can be described thus: cAMP Agonist Assay, HEK293/hNPY2R cells. On the set-up: expressed in transfected cells; host or cells: HEK293/hNPY2R (G418 selection).
Description: On the first day, medium was discarded, and the monolayer cells were washed with 10 mL PBS per flask (T225). […] The flask was gently tapped and the cell suspension was pooled. Each flask was rinsed with 10 mL plating medium and centrifuged at 1000 rpm for 5 min. The suspension was pooled and counted. The suspension was resuspended in plating medium at a density of 2.0×10^5 cells/mL for HEK293/hNPY2R. 50 microliters of cells (HEK293/hNPY2R-10,000 cells/well) were transferred into the 384-well plate using Multi-drop dispenser. The plates were incubated at 37° C. overnight. […] The media and reagents were allowed to come to room temperature. Before the dilutions were prepared, the stock solution of stimulating compound in dimethyl sulphoxide (DMSO, Sigma, cat #D2650) was allowed to warm up to 32 C for 5-10 min. […] The cell medium was tapped off with a gentle inversion of the cell plate on a paper towel. 50 μL of stimulation medium was placed per well (each concentration done in four replicates). The plates were incubated at room temperature for 30 min, and the cells were checked under a microscope for toxicity. After 30 minutes of treatment, the stimulation media was discarded and 50 mL/well of Assay Lysis Buffer (provided in the Tropix kit) was added. The plates were incubated for 45 min@37° C. 20 μL of the lysate was transferred from stimulation plates into the pre-coated antibody plates (384-well) from the Tropix kit. 10 μL of AP conjugate and 20 μL of anti-cAMP antibody was added. The plates were incubated at room temperature while shaking for 1 hour. The plates were then washed 5 times with Wash Buffer, 70 μL per well for each wash. The plates were tapped to dry. 30 μL/well of CSPD/Saphire-II RTU substrate/enhancer solution was added and incubated for 45 min @ RT (shake). Signal for 1 sec/well in a Luminometer.

In experiment [2] the target is T3, hNPY2R. Kind of experiment: CaFlux Assay (FLIPR), Y2R. Details: expressed in transfected cells; host or cells: HEK-293 stably expressing G protein chimera Gaqi9.
Description: Hek-293 cells were stably transfected with the G protein chimera Gaqi9 and the hygromycin-B resistance gene were further transfected with the human NPY2 receptor and G418 antibiotic selection. Following selection in both hygromycin-B and G418, individual clones were assayed for their response to PYY. The transfected cells were cultured in DMEM medium supplemented with 10% fetal bovine serum, 50 μg/mL hygromycin-B 2 mM glutamine, 100 U/mL penicillin, 100 μg/mL streptomycin and 250 μg/mL G418. Cells are harvested with trypsin-EDTA and counted using ViaCount reagent. The cell suspension volume is adjusted to 4.8×10^5 cells/mL with complete growth media. Aliquots of 25 μL are dispensed into 384 well Poly-D Lysine coated black/clear microplates (Falcon) and the microplates were placed in a 37° C. CO2 incubator overnight. Loading Buffer (Calcium-3 Assay Kit, Molecular Devices) was prepared by dissolving the contents of one vial (Express Kit) into 1000 mL Hank's Balanced Salt Solution containing 20 mM HEPES and 5 mM probenecid. Aliquots of 25 μL of diluted dye were dispensed into the cell plates and the plates are then incubated for 1 hour at 37° C. During the incubation, test compounds were prepared at 3.5× the desired concentration in HBSS (20 mM HEPES)/0.05% BSA/1% DMSO and transferred to a 384 well plate for use on FLIPR. After incubation, both the cell and compound plates were brought to the FLIPR and 20 μL of the diluted compounds were transferred to the cell plates by the FLIPR. During the assay, fluorescence readings were taken simultaneously from all 384 wells of the cell plate every 1.5 seconds. Five readings were taken to establish a stable baseline, and then 20 μL of sample was rapidly (30 μL/sec) and simultaneously added to each well of the cell plate. The fluorescence was continuously monitored before, during and after sample addition for a total elapsed time of 100 seconds. Responses (increase in peak fluorescence) in each well following addition were determined. The initial fluorescence reading from each well, prior to ligand stimulation, was used as a zero baseline value for the data from that well. The responses are expressed as % of maximal response of the positive control.

On to `CCCCCCCCCCCCCCCC(=O)NCCOCCOCCOCCC(=O)NCCCC[C@H](NC(=O)[C@@H](N)[C@@H](C)CC)C(=O)N1CCN(c2ccc3ncn(CC(=O)N[C@@H](CCCNC(=N)N)C(=O)N[C@@H](Cc4c[nH]cn4)C(=O)N[C@@H](Cc4ccc(O)cc4)C(=O)N[C@@H](CC(C)C)C(=O)N[C@@H](CC(N)=O)C(=O)N[C@@H](Cc4c[nH]c5ccccc45)C(=O)N[C@H](C(=O)N[C@H](C(=O)N[C@@H](CCCNC(=N)N)C(=O)N[C@@H](CCC(N)=O)C(=O)N(C)[C@@H](CCCNC(=N)N)C(=O)N[C@@H](Cc4ccc(O)cc4)C(N)=O)[C@@H](C)O)C(C)C)c(=O)c3c2)CC1` [Example 34], for which the EC50 was more than 5000 nM at Y1R; more than 5000 nM at Y4R; 2340 nM on Y5R; 0.1 nM at hNPY2R [1]; 0.003 nM on hNPY2R [2]. The Emax at Y5R was determined as 80%.
Take `CCCCCCCCCCCCCCCCCCCC(=O)NCCOCCOCCOCCC(=O)NCCCC[C@H](NC(=O)[C@@H](N)[C@@H](C)CC)C(=O)N1CCN(c2ccc3ncn(CC(=O)N[C@@H](CCCNC(=N)N)C(=O)N[C@@H](Cc4c[nH]cn4)C(=O)N[C@@H](Cc4ccc(O)cc4)C(=O)N[C@@H](CC(C)C)C(=O)N[C@@H](CC(N)=O)C(=O)N[C@@H](Cc4c[nH]c5ccccc45)C(=O)N[C@H](C(=O)N[C@H](C(=O)N[C@@H](CCCNC(=N)N)C(=O)N[C@@H](CCC(N)=O)C(=O)N(C)[C@@H](CCCNC(=N)N)C(=O)N[C@@H](Cc4ccc(O)cc4)C(N)=O)[C@@H](C)O)C(C)C)c(=O)c3c2)CC1` [Example 35]: the EC50 on Y1R is more than 5000 nM; at Y4R, more than 5000 nM; at Y5R, 501 nM; on hNPY2R [1], 0.11 nM; on hNPY2R [2], 1.02 nM. In addition, on Y5R, the Emax is 65%.
Turning to `CCCCCCCCCCCCCCCC(=O)NCCOCCOCCNC(=O)CCC(=O)NCCCC[C@H](NC(=O)[C@@H](N)[C@@H](C)CC)C(=O)N1CCN(c2ccc3ncn(CC(=O)N[C@@H](CCCNC(=N)N)C(=O)N[C@@H](Cc4c[nH]cn4)C(=O)N[C@@H](Cc4ccc(O)cc4)C(=O)N[C@@H](CC(C)C)C(=O)N[C@@H](CC(N)=O)C(=O)N[C@@H](Cc4c[nH]c5ccccc45)C(=O)N[C@H](C(=O)N[C@H](C(=O)N[C@@H](CCCNC(=N)N)C(=O)N[C@@H](CCC(N)=O)C(=O)N(C)[C@@H](CCCNC(=N)N)C(=O)N[C@@H](Cc4ccc(O)cc4)C(N)=O)[C@@H](C)O)C(C)C)c(=O)c3c2)CC1` [Example 36], the EC50 on Y1R was more than 5000 nM; at Y4R, more than 5000 nM; at Y5R, 481 nM; on hNPY2R [1] it was 0.15 nM; on hNPY2R [2], 0.138 nM. The Emax at Y5R turned out to be 73%.
`CCCCCCCCCCCCCCCCCCCC(=O)NCCOCCOCCNC(=O)CCC(=O)NCCCC[C@H](NC(=O)[C@@H](N)[C@@H](C)CC)C(=O)N1CCN(c2ccc3ncn(CC(=O)N[C@@H](CCCNC(=N)N)C(=O)N[C@@H](Cc4c[nH]cn4)C(=O)N[C@@H](Cc4ccc(O)cc4)C(=O)N[C@@H](CC(C)C)C(=O)N[C@@H](CC(N)=O)C(=O)N[C@@H](Cc4c[nH]c5ccccc45)C(=O)N[C@H](C(=O)N[C@H](C(=O)N[C@@H](CCCNC(=N)N)C(=O)N[C@@H](CCC(N)=O)C(=O)N(C)[C@@H](CCCNC(=N)N)C(=O)N[C@@H](Cc4ccc(O)cc4)C(N)=O)[C@@H](C)O)C(C)C)c(=O)c3c2)CC1` [Example 37]: the EC50 is more than 5000 nM at Y1R; more than 5000 nM at Y4R; 77.9 nM on Y5R; 0.13 nM on hNPY2R [1]; 0.367 nM on hNPY2R [2]. Also, the Emax on Y5R turned out to be 48%.
As for `CCCCCCCCCCCCCCCC(=O)NCCOCCNC(=O)CCC(=O)NCCCC[C@H](NC(=O)[C@@H](N)[C@@H](C)CC)C(=O)N1CCN(c2ccc3ncn(CC(=O)N[C@@H](CCCNC(=N)N)C(=O)N[C@@H](Cc4c[nH]cn4)C(=O)N[C@@H](Cc4ccc(O)cc4)C(=O)N[C@@H](CC(C)C)C(=O)N[C@@H](CC(N)=O)C(=O)N[C@@H](Cc4c[nH]c5ccccc45)C(=O)N[C@H](C(=O)N[C@H](C(=O)N[C@@H](CCCNC(=N)N)C(=O)N[C@@H](CCC(N)=O)C(=O)N(C)[C@@H](CCCNC(=N)N)C(=O)N[C@@H](Cc4ccc(O)cc4)C(N)=O)[C@@H](C)O)C(C)C)c(=O)c3c2)CC1` [Example 38], the EC50 on Y1R is more than 5000 nM; at Y4R, more than 5000 nM; at Y5R, 644 nM; at hNPY2R [1] it was 0.17 nM; at hNPY2R [2] it was 0.003 nM. The Emax at Y5R was found to be 83%.
For `CCCCCCCCCCCCCCCCCCCC(=O)NCCOCCNC(=O)CCC(=O)NCCCC[C@H](NC(=O)[C@@H](N)[C@@H](C)CC)C(=O)N1CCN(c2ccc3ncn(CC(=O)N[C@@H](CCCNC(=N)N)C(=O)N[C@@H](Cc4c[nH]cn4)C(=O)N[C@@H](Cc4ccc(O)cc4)C(=O)N[C@@H](CC(C)C)C(=O)N[C@@H](CC(N)=O)C(=O)N[C@@H](Cc4c[nH]c5ccccc45)C(=O)N[C@H](C(=O)N[C@H](C(=O)N[C@@H](CCCNC(=N)N)C(=O)N[C@@H](CCC(N)=O)C(=O)N(C)[C@@H](CCCNC(=N)N)C(=O)N[C@@H](Cc4ccc(O)cc4)C(N)=O)[C@@H](C)O)C(C)C)c(=O)c3c2)CC1` [Example 39], the EC50 on Y1R is more than 5000 nM; at Y4R, more than 5000 nM; on Y5R, 285 nM; on hNPY2R [1] it was 0.21 nM; on hNPY2R [2], 0.073 nM. For the same compound, on Y5R, the Emax was found to be 50%.
Consider `CCCCCCCCCCCCCCCC(=O)N[C@@H](CO)C(=O)N[C@@H](CO)C(=O)NCCCC[C@H](NC(=O)[C@@H](N)[C@@H](C)CC)C(=O)N1CCN(c2ccc3ncn(CC(=O)N[C@@H](CCCNC(=N)N)C(=O)N[C@@H](Cc4c[nH]cn4)C(=O)N[C@@H](Cc4ccc(O)cc4)C(=O)N[C@@H](CC(C)C)C(=O)N[C@@H](CC(N)=O)C(=O)N[C@@H](Cc4c[nH]c5ccccc45)C(=O)N[C@H](C(=O)N[C@H](C(=O)N[C@@H](CCCNC(=N)N)C(=O)N[C@@H](CCC(N)=O)C(=O)N(C)[C@@H](CCCNC(=N)N)C(=O)N[C@@H](Cc4ccc(O)cc4)C(N)=O)[C@@H](C)O)C(C)C)c(=O)c3c2)CC1` [Example 40], for which the concentration for a half-maximal effect (EC50) at Y1R is more than 5000 nM; at Y4R, more than 5000 nM; at Y5R, 602 nM; on hNPY2R [1], 0.18 nM; at hNPY2R [2] it was 0.36 nM. Also, at Y5R, the Emax amounted to 85%.
`CCCCCCCCCCCCCCCCCCCC(=O)N[C@@H](CO)C(=O)N[C@@H](CO)C(=O)NCCCC[C@H](NC(=O)[C@@H](N)[C@@H](C)CC)C(=O)N1CCN(c2ccc3ncn(CC(=O)N[C@@H](CCCNC(=N)N)C(=O)N[C@@H](Cc4c[nH]cn4)C(=O)N[C@@H](Cc4ccc(O)cc4)C(=O)N[C@@H](CC(C)C)C(=O)N[C@@H](CC(N)=O)C(=O)N[C@@H](Cc4c[nH]c5ccccc45)C(=O)N[C@H](C(=O)N[C@H](C(=O)N[C@@H](CCCNC(=N)N)C(=O)N[C@@H](CCC(N)=O)C(=O)N(C)[C@@H](CCCNC(=N)N)C(=O)N[C@@H](Cc4ccc(O)cc4)C(N)=O)[C@@H](C)O)C(C)C)c(=O)c3c2)CC1` [Example 41]: the EC50 at Y1R was more than 5000 nM; at Y4R it was more than 5000 nM; on Y5R, 1830 nM; on hNPY2R [1] it was 0.11 nM; at hNPY2R [2] it was 0.165 nM. Besides, the Emax on Y5R turned out to be 37%.

These data come from US20100179093A1, “Neoropeptide-2-Receptor (Y-2R) Agonists” (priority 2008, published 2010).
